Test results reported in patent publication US12312473B2, “Composition, film, near-infrared cut filter, pattern forming method, laminate, solid-state imaging element, infrared sensor, image display device, camera module, and compound” (FUJIFILM Corporation, priority 2019, dated 2025).
≈ marks a conversion by molar mass, not a printed value.

Experiment: Solubility of coloring agent in PGMEA
Assay type: physicochemical
Conditions: propylene glycol methyl ether acetate (PGMEA), organic solvent or mixture, thermodynamic from solid, approx. 100 mg in 1 L propylene glycol methyl ether acetate at 25° C., stirred 30 minutes
Description: In the present disclosure, the solubility of the coloring agent having a structure represented by Formula (1) (that is, the specific coloring agent) is measured and obtained by the following method.
Under atmospheric pressure, approximately 100 mg (precisely weighed value is X mg) of the coloring agent having a structure represented by Formula (1) is added to 1 L of propylene glycol methyl ether acetate at 25° C., and the mixture is stirred for 30 minutes, allowed to stand for 5 minutes, and filtered. Thereafter, the filtrate is dried under reduced pressure at 80° C. for 2 hours and precisely weighed (precisely weighed value is Y mg), and the solubility of the specific coloring agent dissolved in propylene glycol methyl ether acetate is calculated from the following expression. PGMEA solubility (mg/L) of specific coloring agent=X—Y
Under atmospheric pressure, approximately 100 mg of the dispersion liquid of the coloring agents shown in Tables 1 to 4 (value of the coloring agents shown Tables 1 to 4 precisely weighed is defined as X mg) was added to 1 L of propylene glycol methyl ether acetate at 25° C., and the mixture was stirred for 30 minutes. Next, the mixture was allowed to stand for 5 minutes and filtered, and the filtrate was dried under reduced pressure at 80° C. for 2 hours and weighed precisely (value of the filtrate precisely weighed is defined as Y mg). Solubility of the coloring agents shown in Tables 1 to 4 dissolved in propylene glycol methyl ether acetate was calculated from the following expression.

solubility at 30 min [µg/mL] | SMILES
< 10 | O=C1C(c2ccc3cccc4c3c2NC2(N4)c3ccccc3-c3ccccc32)=C(O)C1C1C=Cc2cccc3c2C1=NC1(N3)c2ccccc2-c2ccccc21 (centres unmarked) [compound 3, reference compound]
< 10 | O=C1C(c2ccc3cccc4c3c2NB(c2ccc(-c3ccc(B5Nc6cccc7ccc(C8=C(O)/C(=c9/ccc%10cccc%11c%10c9=NB(c9ccccc9)N%11)C8=O)c(c67)N5)cc3)cc2)N4)=C(O)/C1=c1/ccc2cccc3c2c1=NB(c1ccccc1)N3 [A-sq-5]
< 10 | O=C1C(c2ccc3cccc4c3c2NC2(N4)c3ccccc3-c3ccc(OC(=O)c4ccc(C(=O)Oc5ccc6c(c5)C5(N=c7/c(=C8/C(=O)C(c9ccc%10cccc%11c%10c9NC9(N%11)c%10ccccc%10-c%10ccccc%109)=C8O)ccc8cccc(c78)N5)c5ccccc5-6)cc4)cc32)=C(O)/C1=c1/ccc2cccc3c2c1=NC1(N3)c2ccccc2-c2ccccc21 (centres unmarked) [A-sq-1]
< 10 | CC(=O)Nc1cc2c(cc1C1=C([O-])/C(=c3/cc4c(cc3NC(=O)c3ccc(C(=O)Nc5cc6c(cc5C5=C([O-])/C(=c7/cc8c(cc7NC(C)=O)=[N+](C)C(C)C8(C)C)C5=O)C(C)(C)C(C)N6C)cc3)=[N+](C)C(C)C4(C)C)C1=O)C(C)(C)C(C)N2C (centres unmarked) [A-sq-3]

SMILES | solubility at 30 min [µg/mL]
O=C1C(=O)/C(=C2/C=CC(=[N+]3CCC(C(=O)Oc4ccc(OC(=O)C5CC[N+](=C6C=C/C(=C7/C(=O)C(=O)C(c8ccc(N9CCC(C(=O)O)CC9)s8)=C7[O-])S6)CC5)cc4)CC3)S2)C([O-])=C1c1ccc(N2CCC(C(=O)O)CC2)s1 (centres unmarked) [A-cr-1] | 50 to 100 (≈ 44.2 to 88.4 µM)
